From patent publication US11364218B2, “Method of treating or preventing mood disorders, mental disorders, and/or chronic fatigue syndrome” (priority 2016, dated 2022)

Columns and labels:
mouse = assay: forced swimming test in mouse (antidepressant action); type: in vivo; conditions: for Immobile time average value / non-moving time: male ICR mice; for Immobile time average value: single forced oral dose 1 h before test (methocarbamol 200 mg/kg; etizolam 0.033 mg/kg), non-moving time in last 7 of 10 min, n=10; for non-moving time: single oral dose 1 h before test (methocarbamol 200 mg/kg; etizolam 0.033 mg/kg), last 7 of 10 min, medium control 230.8 seconds
Source text: The antidepressant action of a test substance may be evaluated using a “forced swimming method” in a mouse model.
The forced swimming test in mouse models is an animal experimental method for confirming the antidepressant activity proposed by Porsalt (Arch. Int, pharmacydn. 229.327-336 (1977)).
A mouse placed into a pool indicates either an active state or a non-moving state. Decreases in the non-moving state of the mouse is used as an index to confirm the antidepressant action of a pharmaceutical composition.
The pool used for forced swimming was a glass cylindrical container 30 cm in height and 16 cm in inner diameter filled at a water depth of 20 cm at 25° c.
One hour before the test, 10 mL/kg of the above prepared methocarbamol aqueous solution was administered to the mouse only once (200 mg/kg in methocarbamol conversion).
The administration route was a forced oral administration using an installed mice oral administration sonde made by FUCHIGAMI with a syringe for injection made by TERUMO.
After one hour of forced administration, the mouse was placed in the forced swimming pool described above and left for 10 minutes.
The first three minutes after entering were considered a conditioning period, and the mouse's non-moving time in the remaining 7 minutes was measured.
“Non-motion” was defined by the mouse not moving the anterior limb and the posterior limb, and by a state in which the upper side of the neck is lifted from the water surface and floats.
The “non-moving time” was the sum of “non-motion” time.
The test was repeated 10 times for each mouse, and an average value was calculated.
An etizolam aqueous solution was used in place of a methocarbamol aqueous solution. The same test as described above (1) was performed, but with the administration amount converted to etizolam usage at 0.0333 mg/kg.
Distilled water not containing a pharmaceutical was used in place of the methocarbamol aqueous solution in the same manner as described above (1).
The average non-moving time values of the medium control group (n=10), the examples, and comparative examples (n=10) were compared with each other.

depression patients = assay: Test for administration to depression patients; type: in vivo, human
Protocol: Test for administration to depression patients (embodiment 1) A 500 mg bolaxin tablet (manufactured by Ying-Yuan chemical pharmaceutical co. ltd.) and 500 mg-containing (methocarbamol content 76% mass) were prepared. A subject suffering from depression for two or more years was selected. A pharmaceutical composition was administered to the patient three times a day, and the administration was continued for one week. The dose on the initial day was 3.0 to 4.5 g/day (converted to methocarbamol). After observing the patient's state, it was increased to 6.0 g/day (converted to methocarbamol). The regular drug in addition to the tested pharmaceutical composition was continuously taken, but drinking was prohibited during the test. After one week, a potential depression improvement effect before and after administration was evaluated. The evaluation investigated a significant difference in two-term judgment of two related groups. The evaluation was judged based on a declaration of whether the subjects felt an improvement in thinking, desires, and fatigue.

[1] = N=5 depression patients, bolaxin tablets three times a day for one week, 3.0 to 4.5 g/day increased to 6.0 g/day as methocarbamol

Row | SMILES | Immobile time average value (mouse) [s] | non-moving time (mouse) [s] | antidepressant effect compared with etizolam group (forced swimming) (mouse; methocarbamol 200 mg/kg oral vs etizolam 0.033 mg/kg oral) | Effective (subjects declaring improvement in thinking, desires and fatigue) (depression patients; [1]) [persons] | No effect (depression patients; [1]) [persons] | depression treatment effect (depression patients; depression patients, one week of administration)
1 | CCc1cc2c(s1)-n1c(C)nnc1CN=C2c1ccccc1Cl [Reagent E-1, Etizolam] | 107.3 | 107.3 |  |  |  | 
2 | COc1ccccc1OCC(O)COC(N)=O (centres unmarked) [Reagent M-1, Methocarbamol] | 157.7 | 157.7 | essentially the same effect as the etizolam administration group | 5 | 0 | beneficial depression treatment effect
